# “Also recorded” adds a separate entry of the source.
# Experiments:
# [1] = system: human primary myoblasts; assay: Cell death assay in human primary myoblasts (propidium iodide); assay type: cell-based; settings: high dose vacor (100 μM), 24 h vs DMSO
# Protocol: (§1) Human primary myoblasts and human dermal skin fibroblasts were cultured following previously described protocols (Kisiel and Klar 2019; Rozwadowska et al. 2022). Drug treatment was started when cells reached the desired confluency. To visualise cell death, 1 μg/ml propidium iodide (PI) (Thermo Fisher Scientific) was added to the media at the same time of drug addition (Loreto et al. 2021). Phase contrast and fluorescence microscopy images were acquired on a DMi8 upright fluorescence microscope (Leica microsystems) coupled to a monochrome digital camera (Hamamatsu C4742-95). The objective used was HCXPL 20 X/0.40 CORR.
# [2] = system: Rat oligodendrocytes; assay: Cell death / SOX10 positive cell survival in cultured rat oligodendrocytes; assay type: cell-based; settings: 100 μM vacor for 72 hours vs DMSO
# Protocol: Sprague-Dawley neonatal (sp7) rat pups were decapitated following lethal overdose with pentobarbital. The brains were dissected and submerged into Hibernate-A low fluorescence media (Transnetyx Tissue, #HALF). The tissue was cut into 1-mm^3 pieces, washed in HBSS^−/− (Gibco, #11039047), then spun down at 100 g for 1 min at room temperature. To digest the tissue, the tissue was incubated in 34 U/mL papain (Worthington, #LS003127) and 40 μg/mL DNase I (Sigma, #D5025) in HALF, and incubated on an orbital shaker (55 rpm) for 40 min at 37° C. […] To collect the A2B5+ fraction, the MACS MS column (Miltenyi, #130-042-201) was removed from the magnetic stand (Miltenyi, #130-042-102) and cells were flushed from the column with 1 ml of prewarmed OPC medium (DMEM F/12 containing N-Acetyl cysteine (60 μg/ml, Sigma, #A9165), human recombinant insulin (10 ug/ml), sodium pyruvate (1 mM, Thermo Fisher, #11360-070), apo-transferrin (50 μg/ml, Sigma, #T2036), putrescine (16.1 μg/ml, Sigma, #P7505), sodium selenite (40 ng/ml, Sigma, #S5261), progesterone (60 ng/ml, Sigma, #P0130), bovine serum albumin (330 μg/ml, Sigma, #A4919). Cells were counted, then seeded at a density of 20,000 cells/cm^2 on poly-D-lysine (5 μg/ml PDL, Sigma #P6407) coated plates. […]
# [3] = system: human dermal skin fibroblasts; assay: Cell death assay in human dermal skin fibroblasts (propidium iodide); assay type: cell-based; settings: high dose vacor (100 μM), 72 h vs DMSO
# Protocol: as §1
# [4] = target: T1, SARM1 (Homo sapiens, UniProt Q6SZW1); settings: Loreto et al., 2021; Angeletti et al., 2022; Wu et al.; cited from earlier work
# T1 sequence (Q6SZW1 28-724): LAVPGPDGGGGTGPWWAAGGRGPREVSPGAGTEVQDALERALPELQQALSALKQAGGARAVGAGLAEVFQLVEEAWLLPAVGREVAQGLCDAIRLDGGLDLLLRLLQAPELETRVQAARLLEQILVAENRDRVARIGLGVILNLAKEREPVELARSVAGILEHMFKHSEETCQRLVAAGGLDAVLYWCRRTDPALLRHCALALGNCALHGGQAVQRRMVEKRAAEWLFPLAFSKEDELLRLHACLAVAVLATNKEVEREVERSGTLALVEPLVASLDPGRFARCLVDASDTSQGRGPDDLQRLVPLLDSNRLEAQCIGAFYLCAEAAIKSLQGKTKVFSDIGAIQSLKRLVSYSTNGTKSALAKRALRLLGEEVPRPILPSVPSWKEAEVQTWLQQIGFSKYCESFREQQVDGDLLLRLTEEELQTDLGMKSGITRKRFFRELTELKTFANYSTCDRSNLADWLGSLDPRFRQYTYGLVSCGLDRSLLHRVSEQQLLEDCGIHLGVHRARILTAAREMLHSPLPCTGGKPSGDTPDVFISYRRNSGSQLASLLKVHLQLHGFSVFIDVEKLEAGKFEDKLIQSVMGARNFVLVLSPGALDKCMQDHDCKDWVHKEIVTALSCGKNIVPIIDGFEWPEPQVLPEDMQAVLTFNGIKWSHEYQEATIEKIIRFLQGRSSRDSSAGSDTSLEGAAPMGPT
smiles,measurement,setting,value
"O=C(NCc1cccnc1)Nc1ccc([N+](=O)[O-])cc1 [vacor, Vacor]",cell death by propidium iodide (P.I.) staining,[1],completely insensitive; also recorded: no cell death occurs
same,cell death judged by DAPI nuclear staining and SOX10 immunocytochemistry,[2],died within hours; also recorded: substantial cell death
same,cell death by propidium iodide (P.I.) staining,[3],completely insensitive; also recorded: no cell death occurs
same,SARM1 activity on interaction with active site (TIR domain) for base exchange reaction,[4],modest increase in SARM1 activity

# Reference: patent US20260166017A1, “SARM1 INHIBITORS FOR USE IN THERAPY AND COSMETICS” (priority 2022, published 2026)
